Reference: ChEMBL document CHEMBL5465560, “Selectivity Literature for EUbOPEN Chemogenomic Library” (2024)

Key:
[1] = molecular target: T1, Myosin light chain kinase (Homo sapiens) (UniProt Q32MK0); test: Selectivity interaction (KinomeScan (DiscoverX)) EUB0001049a MYLK3; settings: at 1 µM
T1 sequence (whole entry): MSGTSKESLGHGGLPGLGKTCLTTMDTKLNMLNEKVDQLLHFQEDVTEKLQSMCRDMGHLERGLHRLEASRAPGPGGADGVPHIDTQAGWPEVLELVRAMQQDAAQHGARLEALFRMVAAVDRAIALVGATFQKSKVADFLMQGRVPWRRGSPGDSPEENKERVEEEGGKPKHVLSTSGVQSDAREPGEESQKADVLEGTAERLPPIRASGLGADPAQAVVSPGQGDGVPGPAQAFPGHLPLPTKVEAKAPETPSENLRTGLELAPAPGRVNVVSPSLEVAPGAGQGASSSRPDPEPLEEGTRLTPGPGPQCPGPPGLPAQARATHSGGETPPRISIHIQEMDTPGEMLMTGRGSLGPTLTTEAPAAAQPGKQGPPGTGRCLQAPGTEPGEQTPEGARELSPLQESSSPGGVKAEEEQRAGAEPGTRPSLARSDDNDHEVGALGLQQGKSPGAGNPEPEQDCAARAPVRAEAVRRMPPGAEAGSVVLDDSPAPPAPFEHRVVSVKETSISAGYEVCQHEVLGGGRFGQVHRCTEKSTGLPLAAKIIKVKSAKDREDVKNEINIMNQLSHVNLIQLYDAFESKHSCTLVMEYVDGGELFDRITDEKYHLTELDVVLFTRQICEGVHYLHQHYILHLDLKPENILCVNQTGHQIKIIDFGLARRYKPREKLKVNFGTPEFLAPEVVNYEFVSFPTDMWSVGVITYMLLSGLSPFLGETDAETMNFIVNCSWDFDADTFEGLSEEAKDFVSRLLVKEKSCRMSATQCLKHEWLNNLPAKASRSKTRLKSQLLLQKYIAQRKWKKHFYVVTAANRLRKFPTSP

[2] = molecular target: Serine/threonine-protein kinase VRK2 (Homo sapiens) (UniProt Q86Y07); test: Selectivity interaction (KinomeScan (DiscoverX)) EUB0001049a VRK2; settings: at 1 µM
Serine/threonine-protein kinase VRK2 (Homo sapiens), sequence (Q86Y07 whole entry, canonical isoform): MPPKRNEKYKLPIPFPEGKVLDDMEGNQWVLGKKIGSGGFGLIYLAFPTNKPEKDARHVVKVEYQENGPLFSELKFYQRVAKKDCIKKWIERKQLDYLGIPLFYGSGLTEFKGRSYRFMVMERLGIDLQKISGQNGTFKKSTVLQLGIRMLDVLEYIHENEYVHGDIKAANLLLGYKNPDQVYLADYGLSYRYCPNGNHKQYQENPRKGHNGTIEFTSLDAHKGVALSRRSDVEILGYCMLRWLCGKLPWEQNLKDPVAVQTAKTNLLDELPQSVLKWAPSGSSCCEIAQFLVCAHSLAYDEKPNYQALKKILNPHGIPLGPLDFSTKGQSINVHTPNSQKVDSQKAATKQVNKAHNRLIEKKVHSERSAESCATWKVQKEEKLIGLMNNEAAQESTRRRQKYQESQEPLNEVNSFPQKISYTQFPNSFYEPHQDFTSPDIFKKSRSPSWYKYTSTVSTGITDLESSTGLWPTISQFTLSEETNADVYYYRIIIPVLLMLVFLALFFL

[3] = molecular target: Phosphatidylinositol 4,5-bisphosphate 3-kinase catalytic subunit beta isoform (Homo sapiens) (UniProt P42338); test: Selectivity interaction (KinomeScan (DiscoverX)) EUB0000666a PIK3CB; settings: at 10 µM
Phosphatidylinositol 4,5-bisphosphate 3-kinase catalytic subunit beta isoform (Homo sapiens), sequence (P42338 whole entry, looked up, canonical isoform): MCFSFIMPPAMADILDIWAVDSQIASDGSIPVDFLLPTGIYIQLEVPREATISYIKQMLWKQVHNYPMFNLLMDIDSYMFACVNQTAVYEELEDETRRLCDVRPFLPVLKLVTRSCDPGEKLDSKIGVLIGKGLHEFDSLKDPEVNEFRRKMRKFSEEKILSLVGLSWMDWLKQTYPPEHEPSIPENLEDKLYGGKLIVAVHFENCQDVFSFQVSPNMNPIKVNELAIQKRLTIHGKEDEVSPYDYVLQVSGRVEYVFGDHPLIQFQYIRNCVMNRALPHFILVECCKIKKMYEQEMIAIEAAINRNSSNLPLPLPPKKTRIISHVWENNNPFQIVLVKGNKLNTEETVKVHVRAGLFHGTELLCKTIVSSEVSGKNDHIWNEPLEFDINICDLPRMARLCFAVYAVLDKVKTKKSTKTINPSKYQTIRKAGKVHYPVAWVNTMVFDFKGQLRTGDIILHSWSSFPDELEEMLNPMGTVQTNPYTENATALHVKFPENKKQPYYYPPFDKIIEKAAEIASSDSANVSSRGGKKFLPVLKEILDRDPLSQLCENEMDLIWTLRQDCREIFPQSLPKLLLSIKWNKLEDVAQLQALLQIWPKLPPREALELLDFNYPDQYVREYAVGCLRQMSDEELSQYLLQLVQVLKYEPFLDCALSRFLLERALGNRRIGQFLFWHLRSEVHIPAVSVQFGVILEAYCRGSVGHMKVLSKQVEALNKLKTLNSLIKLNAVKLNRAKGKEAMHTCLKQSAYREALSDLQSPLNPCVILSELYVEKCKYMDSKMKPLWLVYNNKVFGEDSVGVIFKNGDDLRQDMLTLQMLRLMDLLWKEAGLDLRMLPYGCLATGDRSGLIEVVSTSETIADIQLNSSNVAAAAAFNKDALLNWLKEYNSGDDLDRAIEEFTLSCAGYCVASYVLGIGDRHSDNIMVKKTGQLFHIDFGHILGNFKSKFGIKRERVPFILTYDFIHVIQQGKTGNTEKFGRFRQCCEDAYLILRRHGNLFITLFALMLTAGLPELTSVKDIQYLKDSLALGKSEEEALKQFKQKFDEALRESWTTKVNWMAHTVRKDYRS

[4] = molecular target: T2, Ephrin type-B receptor 6 (Homo sapiens) (UniProt O15197); test: Selectivity interaction (KinomeScan (DiscoverX)) EUB0001079a EPHB6; settings: at 1 µM
T2 sequence (whole entry): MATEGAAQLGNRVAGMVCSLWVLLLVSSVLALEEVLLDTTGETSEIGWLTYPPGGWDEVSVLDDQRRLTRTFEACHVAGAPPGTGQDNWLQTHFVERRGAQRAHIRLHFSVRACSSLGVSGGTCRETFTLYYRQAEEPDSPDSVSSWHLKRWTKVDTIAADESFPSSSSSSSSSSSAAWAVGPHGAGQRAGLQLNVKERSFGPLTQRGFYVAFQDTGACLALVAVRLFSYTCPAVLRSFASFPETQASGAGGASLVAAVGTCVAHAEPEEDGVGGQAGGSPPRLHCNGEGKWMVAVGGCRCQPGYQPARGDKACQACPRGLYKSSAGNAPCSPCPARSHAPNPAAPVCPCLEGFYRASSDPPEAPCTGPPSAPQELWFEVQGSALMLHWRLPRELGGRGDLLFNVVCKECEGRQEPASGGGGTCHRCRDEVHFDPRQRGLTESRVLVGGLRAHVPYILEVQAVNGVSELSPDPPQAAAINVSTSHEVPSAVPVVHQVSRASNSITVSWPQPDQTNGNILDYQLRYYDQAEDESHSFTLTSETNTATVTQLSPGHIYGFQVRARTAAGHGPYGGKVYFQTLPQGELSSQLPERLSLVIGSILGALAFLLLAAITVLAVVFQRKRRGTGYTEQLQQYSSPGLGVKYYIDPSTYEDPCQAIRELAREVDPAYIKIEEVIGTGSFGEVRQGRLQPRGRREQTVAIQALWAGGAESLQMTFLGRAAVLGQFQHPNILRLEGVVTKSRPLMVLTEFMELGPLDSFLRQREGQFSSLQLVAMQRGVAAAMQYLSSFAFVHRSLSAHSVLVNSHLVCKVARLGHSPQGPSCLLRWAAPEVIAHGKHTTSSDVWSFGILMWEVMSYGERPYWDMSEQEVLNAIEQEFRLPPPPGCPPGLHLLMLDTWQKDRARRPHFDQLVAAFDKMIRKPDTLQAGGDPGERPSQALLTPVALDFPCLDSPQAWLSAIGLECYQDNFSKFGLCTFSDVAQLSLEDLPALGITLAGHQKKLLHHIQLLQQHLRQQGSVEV

[5] = molecular target: T3, Scaffold protein ILK (Homo sapiens) (UniProt Q13418); test: Selectivity interaction (Kinase panel (KiNativ target engagement assay in Jurkat cells)) EUB0001635a ILK; assay type: cell-based; settings: Selectivity number of off-targets 0.0, Selectivity number of targets 233.0, Source Knowledge https://www.sciencedirect.com/science/article/pii/S2451945619300674?via%3Dihub, at 1 µM
T3 sequence (whole entry): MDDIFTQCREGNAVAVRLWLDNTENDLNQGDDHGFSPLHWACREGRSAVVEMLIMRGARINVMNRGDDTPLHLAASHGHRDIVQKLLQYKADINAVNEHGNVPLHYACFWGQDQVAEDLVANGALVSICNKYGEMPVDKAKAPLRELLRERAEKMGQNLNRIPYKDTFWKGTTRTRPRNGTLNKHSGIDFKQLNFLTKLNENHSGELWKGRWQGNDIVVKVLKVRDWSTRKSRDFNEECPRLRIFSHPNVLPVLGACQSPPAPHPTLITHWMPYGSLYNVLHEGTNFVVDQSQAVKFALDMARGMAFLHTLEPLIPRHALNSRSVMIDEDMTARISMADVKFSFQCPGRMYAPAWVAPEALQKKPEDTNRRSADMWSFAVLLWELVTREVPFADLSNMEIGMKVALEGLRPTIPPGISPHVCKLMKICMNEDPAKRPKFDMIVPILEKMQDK

[6] = molecular target: Focal adhesion kinase 1 (Homo sapiens, UniProt Q05397); test: Selectivity interaction (ActivX KiNativ screen (kinase selectivity in THP-1 cell lysates)) EUB0000639a PTK2; assay type: subcellular; settings: lysate, at 1 µM
Focal adhesion kinase 1, sequence (Q05397 2-1052 limits assumed): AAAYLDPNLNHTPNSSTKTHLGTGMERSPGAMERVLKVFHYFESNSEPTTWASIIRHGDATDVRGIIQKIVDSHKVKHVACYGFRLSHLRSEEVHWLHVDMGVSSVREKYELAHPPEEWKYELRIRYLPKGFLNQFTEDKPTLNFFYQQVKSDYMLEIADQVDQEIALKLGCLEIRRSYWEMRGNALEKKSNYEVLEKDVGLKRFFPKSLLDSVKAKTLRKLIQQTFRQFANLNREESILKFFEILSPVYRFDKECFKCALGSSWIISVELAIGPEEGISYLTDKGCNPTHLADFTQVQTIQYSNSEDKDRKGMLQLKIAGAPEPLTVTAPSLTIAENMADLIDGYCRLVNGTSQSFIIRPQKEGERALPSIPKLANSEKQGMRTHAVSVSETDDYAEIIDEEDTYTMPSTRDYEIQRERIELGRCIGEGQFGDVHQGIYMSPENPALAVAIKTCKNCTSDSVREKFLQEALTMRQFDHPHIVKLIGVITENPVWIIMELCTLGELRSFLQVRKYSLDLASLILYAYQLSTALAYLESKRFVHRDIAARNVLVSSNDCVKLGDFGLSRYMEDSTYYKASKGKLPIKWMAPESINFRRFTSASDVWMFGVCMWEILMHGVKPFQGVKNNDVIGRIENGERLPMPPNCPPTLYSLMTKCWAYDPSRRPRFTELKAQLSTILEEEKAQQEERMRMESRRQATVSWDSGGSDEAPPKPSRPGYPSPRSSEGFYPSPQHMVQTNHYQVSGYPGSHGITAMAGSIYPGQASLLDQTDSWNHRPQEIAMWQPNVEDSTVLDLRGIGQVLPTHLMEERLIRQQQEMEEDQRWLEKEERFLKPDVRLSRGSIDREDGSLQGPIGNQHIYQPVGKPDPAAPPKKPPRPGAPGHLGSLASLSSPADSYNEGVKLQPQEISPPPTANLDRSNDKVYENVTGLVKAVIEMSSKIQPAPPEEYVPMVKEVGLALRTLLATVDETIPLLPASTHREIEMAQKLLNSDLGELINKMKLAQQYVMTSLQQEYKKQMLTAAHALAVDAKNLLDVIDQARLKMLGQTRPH

[7] = molecular target: Insulin-like growth factor 1 receptor (Homo sapiens, UniProt P08069); test: Selectivity interaction (Upstate Kinase Profiler service (Millipore)) EUB0000056c IGF1R; settings: at 1 µM
Insulin-like growth factor 1 receptor, sequence (P08069 31-736 limits assumed): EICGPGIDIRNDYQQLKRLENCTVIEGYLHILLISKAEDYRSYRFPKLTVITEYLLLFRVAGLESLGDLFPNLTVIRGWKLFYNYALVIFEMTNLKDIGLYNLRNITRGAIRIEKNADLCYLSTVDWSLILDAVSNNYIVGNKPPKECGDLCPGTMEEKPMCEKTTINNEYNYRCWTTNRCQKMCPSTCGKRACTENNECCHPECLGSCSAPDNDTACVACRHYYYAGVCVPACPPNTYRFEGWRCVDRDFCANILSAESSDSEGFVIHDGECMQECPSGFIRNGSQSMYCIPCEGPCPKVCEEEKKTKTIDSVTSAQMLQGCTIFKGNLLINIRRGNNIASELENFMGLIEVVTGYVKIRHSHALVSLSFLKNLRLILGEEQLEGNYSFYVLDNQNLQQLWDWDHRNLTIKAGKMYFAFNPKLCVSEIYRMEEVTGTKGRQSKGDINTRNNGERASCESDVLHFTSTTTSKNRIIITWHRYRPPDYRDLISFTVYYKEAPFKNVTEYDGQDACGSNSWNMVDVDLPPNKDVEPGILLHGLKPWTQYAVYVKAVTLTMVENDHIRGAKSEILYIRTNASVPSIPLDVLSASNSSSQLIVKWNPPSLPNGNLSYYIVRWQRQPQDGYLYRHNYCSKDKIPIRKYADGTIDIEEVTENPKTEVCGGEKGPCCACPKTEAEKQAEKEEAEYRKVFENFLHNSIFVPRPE
Insulin-like growth factor 1 receptor, sequence (P08069 741-1367 limits assumed): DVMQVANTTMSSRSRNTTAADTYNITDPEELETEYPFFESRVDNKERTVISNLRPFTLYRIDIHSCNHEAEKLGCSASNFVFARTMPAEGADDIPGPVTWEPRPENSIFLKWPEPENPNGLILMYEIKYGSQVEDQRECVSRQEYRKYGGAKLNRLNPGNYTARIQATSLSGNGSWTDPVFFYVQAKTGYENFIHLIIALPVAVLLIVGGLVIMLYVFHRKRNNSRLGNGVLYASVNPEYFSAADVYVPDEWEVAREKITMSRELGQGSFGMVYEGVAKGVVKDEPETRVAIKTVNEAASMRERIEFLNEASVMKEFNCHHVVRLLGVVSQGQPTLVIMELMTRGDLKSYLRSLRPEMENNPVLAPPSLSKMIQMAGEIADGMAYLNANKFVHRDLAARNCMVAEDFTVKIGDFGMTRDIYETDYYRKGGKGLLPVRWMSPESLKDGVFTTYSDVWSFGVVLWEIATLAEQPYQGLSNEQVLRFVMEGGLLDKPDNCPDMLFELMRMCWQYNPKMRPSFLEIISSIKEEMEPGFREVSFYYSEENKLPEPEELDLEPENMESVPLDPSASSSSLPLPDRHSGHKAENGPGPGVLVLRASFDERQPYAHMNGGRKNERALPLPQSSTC

[8] = molecular target: Transient receptor potential cation channel subfamily M member 6 (Homo sapiens) (UniProt Q9BX84); test: Selectivity interaction (KinomeScan (DiscoverX)) EUB0000607a TRPM6; settings: at 10 µM
[9] = molecular target: CDK17/Cyclin-Y (Homo sapiens) (UniProt Q00537+Q8ND76); test: Selectivity interaction (Kinase panel (Z-LYTE Assay)) EUB0001632a CDK17; assay type: protein-complex assay; settings: at 10 µM
CDK17/Cyclin-Y (Homo sapiens), sequence (Q00537 whole entry): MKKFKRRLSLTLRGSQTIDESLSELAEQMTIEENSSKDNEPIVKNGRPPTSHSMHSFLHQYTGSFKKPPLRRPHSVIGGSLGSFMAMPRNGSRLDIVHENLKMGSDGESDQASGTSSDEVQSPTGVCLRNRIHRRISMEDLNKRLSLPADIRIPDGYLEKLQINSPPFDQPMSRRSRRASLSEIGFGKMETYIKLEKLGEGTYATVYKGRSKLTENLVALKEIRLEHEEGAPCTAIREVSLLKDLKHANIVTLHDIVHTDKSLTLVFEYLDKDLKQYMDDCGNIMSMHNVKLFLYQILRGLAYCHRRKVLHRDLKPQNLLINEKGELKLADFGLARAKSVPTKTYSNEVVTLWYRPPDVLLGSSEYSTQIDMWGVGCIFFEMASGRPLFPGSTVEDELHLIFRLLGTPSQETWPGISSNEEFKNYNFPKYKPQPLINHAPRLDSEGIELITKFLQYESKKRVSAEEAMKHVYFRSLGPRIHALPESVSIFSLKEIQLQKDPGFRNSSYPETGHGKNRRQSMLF
CDK17/Cyclin-Y (Homo sapiens), sequence (Q8ND76 2-341 partner limits assumed): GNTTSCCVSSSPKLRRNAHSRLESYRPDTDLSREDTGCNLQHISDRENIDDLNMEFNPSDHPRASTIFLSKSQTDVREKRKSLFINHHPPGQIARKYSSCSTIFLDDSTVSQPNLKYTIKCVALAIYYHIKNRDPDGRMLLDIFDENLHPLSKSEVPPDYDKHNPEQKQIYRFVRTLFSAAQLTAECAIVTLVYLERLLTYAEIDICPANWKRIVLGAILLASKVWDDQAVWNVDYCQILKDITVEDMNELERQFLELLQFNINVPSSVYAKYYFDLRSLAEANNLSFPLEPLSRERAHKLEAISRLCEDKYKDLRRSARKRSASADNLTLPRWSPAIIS

[10] = molecular target: Interferon-induced, double-stranded RNA-activated protein kinase (Homo sapiens) (UniProt P19525); test: Selectivity interaction (LanthaScreen Eu Kinase Binding Assay) EUB0001632a EIF2AK2; settings: at 10 µM

COc1cc(Nc2nc(C)cc(-c3cnn4nc(OC)ccc34)n2)cc(C(F)(F)F)c1
% of control [1]: 82%
% of control [2]: 100%

O=C(NOC[C@H](O)CO)c1ccc(F)c(F)c1Nc1ccc(I)cc1F
% of control [3]: 100%

Nc1cnc(N2CCc3cc(S(=O)(=O)Nc4c(F)cc(Cl)cc4F)cc(N4CCCC4=O)c32)nc1 [TP-020n]
% of control [4]: 100%

C=CC(=O)Nc1ccc(C(=O)Nc2[nH]nc3c2CN(C(=O)N[C@H](CN(C)C)c2ccccc2)C3(C)C)cc1
% of engagement [5]: -11.5%

CC[C@@H]1[C@H](F)C(=O)N[C@@H]1COc1nccc2cc(C(N)=O)c(OC)cc12 [ZIMLOVISERTIB]
% of inhibition [6]: -38.6%

Cc1ccc(-c2ccc3c(ccc4sc5c(c43)NC[C@@H](C)NC5=O)n2)cn1
% of inhibition [7]: 0%

CNC(=O)Nc1ccc(-c2nc(N3CC4CCC(C3)O4)c3cnn(C4CCC5(CC4)OCCO5)c3n2)cc1
% of control [8]: 100%

Cn1cc(-n2cnc3c(NCc4nc5cc(Cl)c(Cl)cc5[nH]4)nc(N4CCOCC4)nc32)cn1
% of control [9]: 8.66%
% of inhibition [10]: -80.6%
